Article PMC4481955, “Sensitive, Fast, and Specific Immunoassays for Methyltestosterone Detection” (Sensors (Basel, Switzerland), 2015)

Tests used:
anti-MT mAb = test: indirect competitive ELISA (icELISA) with anti-MT monoclonal antibody; type: binding, mouse; conditions: for CR (%): CR = (IC50 of MT/IC50 of competition analogue) x 100%
Method: (§1) Checkerboard titration was used for the determination of optimum coating antigen and antibody concentrations in icELISA. A 96-well microplate was coated with 100 μL/well MT-CMO-OVA (0.1 μg/mL, in 0.05 M CBS, pH 9.6) and incubated overnight at 4 °C. The wells were washed three times with washing buffer (0.01 M, PBS, containing 0.2% Tween 20) to remove free coating antigen and blocked with 220 μL blocking buffer (0.05 M, 0.2% Gelatin in CBS) at 37 °C for 2 h.
After washing, 50 μL of different concentrations of standard and 50 μL of antibody were added to wells and incubated at 37 °C for 30 min. Following another wash to remove unbound antibody and standards, 100 μL of 1:3000 diluted HRP-labelled goat anti-mouse IgG was added to each well and incubated for 30 min at 37 °C. After washing three times, 100 μL of substrate was added and incubated for 15 min at 37 °C. The enzymatic reaction was stopped with 50 μL sulfuric acid (2 M) per well. A microplate reader was used to determine the absorbance of each well at 450 nm.
Three immunoassay parameters (methanol content, ionic strength and pH of the solvent) were optimized to improve both the stability and sensitivity of icELISA. The criteria used to evaluate immunoassay performance were half inhibition concentration (IC50), maximum absorbance (Amax) and Amax/IC50. To optimize the methanol content in the solvent, PBS was mixed with different contents of methanol (0%, 5%, 10% and 20%). For ionic strength optimization, different concentrations of PBS (5, 10, 20, and 40 mM) were used. Finally, for solvent pH optimization, PBS was adjusted to different pH values (4.7–9.6).
In this study, mAb specificity was investigated by cross-reactivity (CR). Competition analogues (testosterone, nor-testosterone, estradiol, estriol, progesterone, epitestosterone, dihydrotestosterone and dexamethasone) were prepared in methanol at 1 mg/mL. A series of standard solutions (0, 1, 2, 5, 10, 20, 50 and 100 ng/mL) were diluted with optimized PBS and subjected to icELISA. CR values were calculated with the following formula: CR (%) = (IC50 of MT/IC50 of competition analogue) × 100%

[1] = system: antisera (mouse No. 16), anti-MT activity; test: icELISA screening of mouse antiserum for anti-MT activity; type: binding; conditions: mouse No. 16, after two subsequent injections, MT in PBS
Method: Female BALB/c mice (8–10 weeks old) were injected subcutaneously at multiple sites with the immunogen MT-CMO-BSA (100 μg in 0.1 mL saline) emulsified with an equal volume of Freund’s complete adjuvant. For subsequent boosters administered at one-month intervals, Freund’s incomplete adjuvant was used. Antisera were collected following the third booster immunization and screened for anti-MT activity by icELISA [27]. The mouse with the highest anti-MT activity was administered the immunogen (20 μg in 0.2 mL saline) by intraperitoneal injection and sacrificed three days later for cell fusion.
as §1
After washing, 50 μL of different concentrations of standard and 50 μL of antibody were added to wells and incubated at 37 °C for 30 min. […] A microplate reader was used to determine the absorbance of each well at 450 nm.

[2] = optimized icELISA, PBS 10 mM, pH 7.4

Row | Compound | CR (%) (anti-MT mAb) | IC50 (anti-MT mAb; [2]) [ng/mL] | other results
1 | C[C@]12CC[C@H]3[C@@H](CCC4=CC(=O)CC[C@@]43C)[C@@H]1CC[C@H]2O [Epitestosterone] | <0.26 | >100 | 
2 | C[C@]12CC[C@H]3[C@@H](CCC4=CC(=O)CC[C@@H]43)[C@@H]1CC[C@@H]2O [Nor-testosterone] | 1.04 | 25 | 
3 | C[C@]12CC[C@@H]3c4ccc(O)cc4CC[C@H]3[C@@H]1C[C@@H](O)[C@@H]2O [Estriol] | <0.26 | >100 | 
4 | C[C@]12CCC(=O)C=C1CC[C@@H]1[C@@H]2CC[C@@]2(C)[C@H]1CC[C@]2(C)O [Methyltestosterone] | 100 | 0.26 | IC50 of antiserum [1]: approximately 3 ng/mL; IC50 (anti-MT mAb; ionic strength (PBS) 5 mM): 0.68 ± 0.017 ng/mL; IC50 (anti-MT mAb; ionic strength (PBS) 10 mM): 0.398 ± 0.024 ng/mL; IC50 (anti-MT mAb; ionic strength (PBS) 20 mM): 0.565 ± 0.024 ng/mL; IC50 (anti-MT mAb; ionic strength (PBS) 40 mM): 0.504 ± 0.092 ng/mL; IC50 (anti-MT mAb; methanol content 0%): 0.418 ± 0.02 ng/mL; IC50 (anti-MT mAb; methanol content 5%): 0.567 ± 0.023 ng/mL; IC50 (anti-MT mAb; methanol content 10%): 0.418 ± 0.05 ng/mL; IC50 (anti-MT mAb; methanol content 20%): 0.626 ± 0.009 ng/mL; IC50 (anti-MT mAb; pH 4.7): 0.456 ng/mL; IC50 (anti-MT mAb; pH 6.0): 0.723 ± 0.038 ng/mL; IC50 (anti-MT mAb; pH 7.4): 0.455 ng/mL; IC50 (anti-MT mAb; pH 8.6): 0.577 ± 0.026 ng/mL; IC50 (anti-MT mAb; pH 9.6): 0.714 ± 0.007 ng/mL; IC50 of purified mAb (anti-MT mAb; purified mAb from hybridoma 1E12, before optimization): 0.4 ng/mL
5 | CC(=O)[C@H]1CC[C@H]2[C@@H]3CCC4=CC(=O)CC[C@]4(C)[C@H]3CC[C@]12C [Progesterone] | <0.26 | >100 | 
6 | C[C@]12CCC(=O)C[C@@H]1CC[C@@H]1[C@@H]2CC[C@]2(C)[C@@H](O)CC[C@@H]12 [Dihydrotestosterone] | <0.26 | >100 | 
7 | C[C@]12CC[C@@H]3c4ccc(O)cc4CC[C@H]3[C@@H]1CC[C@@H]2O [Estradiol] | 0.52 | 50 | 
8 | C[C@@H]1C[C@H]2[C@@H]3CCC4=CC(=O)C=C[C@]4(C)[C@@]3(F)[C@@H](O)C[C@]2(C)[C@@]1(O)C(=O)CO [Dexamethasone] | <0.26 | >100 | 
9 | C[C@]12CC[C@H]3[C@@H](CCC4=CC(=O)CC[C@@]43C)[C@@H]1CC[C@@H]2O [Testosterone] |  | 12 | 
